Where two headings read alike, the source gives them in different places. Marks after values point to notes of the source that are not given here.

1 substance from patent US20130303564A1, “METHOD FOR TREATING A NEURODEGENERATIVE DISORDER” (RUSH UNIVERSITY MEDICAL CENTER, priority 2012, published 2013) can be followed below.

Series [1] concerns MPTP-intoxicated mice. Put plainly: Locomotor and open-field activities in acute MPTP-intoxicated mice. The class given is in vivo, mouse. The conditions noted are these: NaPB 200 mg/kg body wt/day from 3 h after last MPTP; 7 d. The method, then:
Mice receiving FTI, GGTI or the combination of the two via daily intraperitoneal injection from 3h after the last injection of MPTP were tested for motor functions (B, horizontal activity; C, total distance; D, number of movement; E, stereotypy) 7 d after the last injection of MPTP followed by measuring DA in striatum (A).
The ultimate therapeutic goal of neuroprotection is to decrease functional impairment. Therefore, to examine whether NaPB protects not only against structural and neurotransmitter damage but also against functional deficits caused by MPTP, we monitored locomotor and open-field activities. MPTP injection caused marked decrease in rotorod performance (FIG. 15A), movement time (FIG. 15B), total distance (FIG. 15C), stereotypy (FIG. 15E), rearing (FIG. 15F), and horizontal activity (FIG. 15G). On the other hand, MPTP increased the rest time (FIG. 15D).
Therefore, we investigated if inhibition of either p21^ras or p21^rac alone was sufficient for the protection of the nigrostriatum. MPTP-intoxicated mice received FTI and GGTI, either separately at 10 mg/kg body wt/d or together at 5 mg/kg body wt/d, via i.p. injection from 3 h after the last injection of MPTP. […]
Behavioral analyses: Two types of behavioral experiments were conducted. […] Locomotor activity measures were assessed after baseline value comparison.

Series [2] relates to MPTP-intoxicated mice. The experiment in a line: HPLC analysis of striatal dopamine in acute MPTP-intoxicated mice. The class given is in vivo, mouse. To be noted: NaPB 200 mg/kg body wt/day from 3 h after last MPTP; 7 days; MPTP alone about 76% decrease.
Protocol: Mice receiving NaPB (200 mg/kg body wt/day) from 3 h after the last injection of MPTP were sacrificed 7d after the last injection of MPTP followed by TH immunostaining of SNpc (A) and striatum (B), counting of TH-positive neurons in SNpc (C), quantification of TH-positive fibers in striatum (D), assay of neurotransmitters in striatum (E), and quantification of GSH in nigra (F). Data are means+SEM of eight mice per group. ^ap<0.0001 vs saline group; ^bp<0.0001 vs the MPTP group.
Animals and MPTP intoxications: Six- to eight-week old C57BL/6 mice were purchased from Harlan, Indianapolis, Ind. For acute MPTP intoxication, mice received four intraperitoneal (i.p.) injections of MPTP-HCl (18 mg/kg of free base; Sigma Chemical Co., St. Louis, Mo.) in saline at 2 hr intervals. Control animals received only saline.
HPLC analysis of striatal dopamine and its metabolite levels: Striatal level of dopamine, DOPAC (3,4-dihydroxyphenylacetic acid) and HVA (homovanillic acid) was quantified. […] After pH adjustment and filtration, lOul of supernatant was injected onto an Eicompak SC-3ODS column (Complete Stand-Alone HPLC-ECD System EiCOMITTEC-500 from JM Science Inc., Grand Island, N.Y.) and analyzed following manufacturer's protocol.
Series [3] has as its system primary mouse microglia. The experiment in a line: LPS-induced NO (nitrite) production in primary mouse microglia. The class given is cell-based. How it is done:
Primary mouse microglia were treated with different concentrations of NaPB for 6 h followed by stimulation with LPS under serum-free condition. After 24 h of stimulation, concentrations of nitrite were measured in supernatants (A) and the level of iNOS protein was monitored in cells by Western blot (B). […] After 5 h of stimulation, the expression of iNOS mRNA was monitored by semi-quantitative RT-PCR (C). Cells preinctibated with different concentration of trichostatin A (TSA) and sodium butyrate (NaBu) for 6 h were stimulated with LPS for 24 h under serum-free condition followed by monitoring the level of nitrite in supernatants (p). […] Primary human astroglia isolated from fetal brain tissues were treated with different concentrations of NaPB for 6 h followed by stimulation with IL-1β under serum-free condition. After 48 h of stimulation, concentrations of nitrite (E) were measured in supernatants. Human astroglia plated at 70-80% confluence in 12-well plates were co-transfected with 0.25 μg of phiNOS(7.2)Luc and 12.5 ng of pRL-TK using the Lipofectamine-Plus (Invitrogen). Twenty-four h after transfection, cells received NaPB. After 6 h of incubation, cells were stimulated with IL-1β (20 ng/ml) for 12 h. Firefly (ff-Luc) and Renilla (r-Luc) luciferase activities were obtained by analyzing the total cell extract (F).
(§1) Activated microglia and astroglia are known to produce excessive amount of NO having the potential of damaging neurons in neurodegenerative disorders. We investigated the effect of NaPB on the expression of iNOS in microglia. LPS is a prototype inducer of various proinflammatory molecules in different cell types including mouse microglia. Therefore, primary mouse microglia preincubated with different doses of NaPB for 6 h were stimulated with LPS under serum-free condition. […] We used trichostatin A (TSA) and sodium butyrate (NaBu) for this purpose.
(§2) Isolation of Mouse Microglia: Microglia were isolated from mixed glial cultures. Briefly, on day 7-9, the mixed glial cultures were washed three times with Dulbecco's modified Eagle's medium/F-12 and subjected to shaking at 240 rpm for 2 h at 37° C. on a rotary shaker. The floating cells were washed and seeded on to plastic tissue culture flasks and incubated at 37° C. for 1 h. The attached cells were seeded onto new plates for further studies. […] Mouse BV-2 microglial cells (kind gift from Virginia Bocchini of Universityof Perugia) were also maintained and induced as indicated above.

Series [4] relates to microglia. To be noted: any of the concentrations tested (data not shown). How it is done: as §1
Series [5] has as its system p21^rac. The conditions noted are these: 500 μM preincubation.
Protocol: D) Cells preincubated with 500 μM NaPB were stimulated with LPS. At different time points, activation of p21^ras and p21^rac was monitored. Results represent three independent experiments.
In series [6] the test system is TNF-α. How it is done: as §1, §2
The subject of series [7] is IL-1β. The method, then:
as §1, §2

The mark [8] stands for this setting: LPS + NaPB (0.1 mM), 6 hrs preincubation, LPS 24 hrs, supernatant ELISA.
The mark [9] stands for this setting: LPS + NaPB (0.2 mM), 6 hrs preincubation, LPS 24 hrs, supernatant ELISA.
[10] abbreviates: LPS + NaPB (0.5 mM), 6 hrs preincubation, LPS 24 hrs, supernatant ELISA.

With sodium phenylbutyrate [NaPB], in series [1], the “MPTP-induced hypolocomotion (rotorod, movement time, total distance, rest time, stereotypy, rearing, horizontal activity)” value is reported as “significantly improved”. Besides, in series [2], the “decrease in striatal dopamine” value was 20-25%. Further, the “inhibition of LPS-induced production of NO” value in series [3] (1 or 2 h preincubation (data not shown)) was “not sufficient”; in series [3] (higher concentrations (>200 μM), 6 h preincubation), “markedly suppressed”; in series [3] (lower concentration (100 μM), 6 h preincubation), “not effective”. In series [4], the “toxicity to microglia (MTT)” value was “not toxic”. Besides, in series [5], the “LPS-induced activation of p21^rac” value is recorded as “markedly suppressed”. Moreover, the TNF-α production in series [6] (setting [8]) was 16.8 ± 1.5 ng/mg protein/24 hr; in series [6] (setting [9]), 12.7 ± 0.8 ng/mg protein/24 hr; in series [6] (setting [10]) it was 8.6 ± 1.1^a ng/mg protein/24 hr; in series [6] (NaPB (0.5 mM) only, no LPS), 0 ng/mg protein/24 hr. For the same substance, the “production of TNF-α protein in activated microglia” value in series [6] (Table 1) is on record as “dose-dependently inhibited”. Further, the IL-1β production was 9.9 ± 1.4 ng/mg protein/24 hr in series [7] (setting [8]); 7.5 ± 1.1 ng/mg protein/24 hr in series [7] (setting [9]); 5.3 ± 0.6^a ng/mg protein/24 hr in series [7] (setting [10]); 0 ng/mg protein/24 hr in series [7] (NaPB (0.5 mM) only, no LPS). The “production of IL-1β protein in activated microglia” value in series [7] (Table 1) is given as “dose-dependently inhibited”.
